What was measured:
BBOX [1] = settings: read-out: KM of BBOX for 2OG; cited from earlier work
[2] = test system: histone demethylases (KDMs); assay: Selectivity panel of human 2OG oxygenases: histone demethylases; format: biochemical; settings: at 100 μM
[3] = test system: carnitine biosynthesis in HEK 293T cells; assay: LC-MS detection of carnitine levels in HEK 293T cells; format: cell-based, human; settings: for Carnitine levels: control 100% (SEM ± 13%)
HEK 293T cells = assay: Cytotoxicity in HEK 293T cells; format: cell-based, human; settings: up to concentrations of 0.5 mM
BBOX [4] = settings: read-out: IC50 BBOX in vitro; cited from earlier work
BBOX [5] = target: T1, BBOX (Homo sapiens, UniProt O75936); assay: Binding assay by quenching of the intrinsic fluorescence of BBOX
T1 sequence (O75936 1-387): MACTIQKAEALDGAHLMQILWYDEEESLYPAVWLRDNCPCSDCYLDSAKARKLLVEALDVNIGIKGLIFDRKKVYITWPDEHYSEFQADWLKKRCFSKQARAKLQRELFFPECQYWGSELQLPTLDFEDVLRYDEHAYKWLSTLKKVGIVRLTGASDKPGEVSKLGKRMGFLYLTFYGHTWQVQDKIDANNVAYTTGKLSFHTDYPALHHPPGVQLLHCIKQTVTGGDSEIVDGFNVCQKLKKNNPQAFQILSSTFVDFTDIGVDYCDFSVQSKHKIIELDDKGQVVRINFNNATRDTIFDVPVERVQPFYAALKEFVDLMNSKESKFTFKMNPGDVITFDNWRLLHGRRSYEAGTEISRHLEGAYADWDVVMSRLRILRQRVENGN

In the case of O=C(O)CCC(=O)C(=O)O [2OG, 2-oxoglutarate], the Km (BBOX [1]) is given as 160 µM.
With O=C(N[C@@H](CSCc1ccccn1)C(=O)O)c1ncccc1O [AR692B] the “Activity against the tested KDMs” value [2] was “inactive”, the “Reduction in carnitine levels” value ([3]; HEK 293T cells, 100 μM) was over 40% and the Carnitine levels ([3]; HEK 293T cells, 100 μM compound) was 57 ± 9 percentage of free carnitine l. For the same molecule, the Cytotoxicity (HEK 293T cells) was “not cytotoxic”.
With C[N+](C)(C)CCCC(=O)[O-] [GBB, γ-butyrobetaine] the “Reduction of carnitine levels” value ([3]; cells, 20 μM) was ~ 50%.
In the case of C[N+](C)(C)NCCC(=O)[O-] [Mildronate], the Carnitine levels ([3]; HEK 293T cells, 20 μM compound) is reported as 70 ± 6 percentage of free carnitine l, the “Reduction of carnitine levels” value ([3]; HEK 293T cells, 50 μM) is reported as 63% and the Carnitine levels ([3]; HEK 293T cells, 50 μM compound) is reported as 37 ±10 percentage of free carnitine l. For the same molecule, the “Activity on carnitine levels” value ([3]; HEK 293T cells, below 5 μM) was “not active”, the “Reduction of carnitine levels” value ([3]; cells, 20 μM) was 30% and the IC50 (BBOX [4]) was 60 µM.
For O=C(O)CNC(=O)c1ncccc1O [compound 1, (3-hydroxypicolinoyl)glycine], the Kd (BBOX [5]) was 10.8 µM.
